Tests used:
[1] = target: T1, human glucocorticoid receptor (GR) complex (Homo sapiens, UniProt P04150); assay: Glucocorticoid receptor competitive binding assay (fluorescence polarization, TAMRA-labeled dexamethasone probe); conditions: compounds of Formula (IA)
T1 construct: made in house; host or cells: insect expression system (baculovirus lysate)
T1 sequence (P04150 1-777): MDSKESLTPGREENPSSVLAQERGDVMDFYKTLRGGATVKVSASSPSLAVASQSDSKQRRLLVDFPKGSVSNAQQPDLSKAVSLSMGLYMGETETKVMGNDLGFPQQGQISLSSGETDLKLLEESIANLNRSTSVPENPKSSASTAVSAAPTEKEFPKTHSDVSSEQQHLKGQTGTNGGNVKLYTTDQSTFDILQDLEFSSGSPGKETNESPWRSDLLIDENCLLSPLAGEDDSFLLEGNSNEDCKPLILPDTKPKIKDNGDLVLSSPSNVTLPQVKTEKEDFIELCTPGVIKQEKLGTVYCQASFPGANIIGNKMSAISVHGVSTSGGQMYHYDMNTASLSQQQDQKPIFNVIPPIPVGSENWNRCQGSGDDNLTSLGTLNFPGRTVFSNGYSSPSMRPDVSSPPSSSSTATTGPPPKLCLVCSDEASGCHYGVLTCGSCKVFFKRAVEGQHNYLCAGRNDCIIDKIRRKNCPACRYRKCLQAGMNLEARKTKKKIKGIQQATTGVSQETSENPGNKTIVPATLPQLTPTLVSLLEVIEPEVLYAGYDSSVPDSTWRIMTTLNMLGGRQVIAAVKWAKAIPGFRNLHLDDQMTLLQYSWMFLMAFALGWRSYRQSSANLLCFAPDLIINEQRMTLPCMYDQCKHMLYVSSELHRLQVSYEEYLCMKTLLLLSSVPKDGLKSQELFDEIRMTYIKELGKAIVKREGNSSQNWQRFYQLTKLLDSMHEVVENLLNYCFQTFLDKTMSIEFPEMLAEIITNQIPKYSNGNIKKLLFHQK
Method: Compounds of the invention were evaluated for binding to the steroid receptor by a fluorescence polarization competitive binding assay. Detailed descriptions for preparation of recombinant glucocorticoid receptor (GR) complex used in the assay is described in U.S. patent application Pub.
A. Glucocorticoid Receptor Competitive Binding Assay
Step 1. Characterization of the Fluorescent Probe
The wavelengths for maximum excitation and emission of the fluorescent probe should first be measured. An example of such a probe is rhodamine (TAMRA)-labeled dexamethasone.
The affinity of the probe for the steroid receptor was then determined in a titration experiment. The fluorescence polarization value of the probe in assay buffer was measured on an SLM-8100 fluorometer using the excitation and emission maximum values described above. Aliquots of expression vector lysate were added and fluorescence polarization was measured after each addition until no further change in polarization value was observed. Non-linear least squares regression analysis was used to calculate the dissociation constant of the probe from the polarization values obtained for lysate binding to the probe.
Step 2. Screening for Inhibitors of Probe Binding
This assay uses fluorescence polarization (FP) to quantitate the ability of test compounds to compete with tetramethyl rhodamine (TAMRA)-labeled dexamethasone for binding to a human glucocorticoid receptor (GR) complex prepared from an insect expression system. The assay buffer was: 10 mM TES, 50 mM KCl, 20 mM Na2MoO4.2H2O, 1.5 mM EDTA, 0.04% w/v CHAPS, 10% v/v glycerol, 1 mM dithiothreitol, pH 7.4. Test compounds were dissolved to 1 mM in neat DMSO and then further diluted to 10× assay concentration in assay buffer supplemented with 10% v/v DMSO. Test compounds were serially diluted at 10× assay concentrations in 10% DMSO-containing buffer in 96-well polypropylene plates. Binding reaction mixtures were prepared in 96-well black Dynex microtiter plates by sequential addition of the following assay components to each well: 15 μL of 10× test compound solution, 85 μL of GR-containing baculovirus lysate diluted 1:170 in assay buffer, and 50 μL of 15 nM TAMRA-labeled dexamethasone. Positive controls were reaction mixtures containing no test compound; negative controls (blanks) were reaction mixtures containing 0.7 μM to 2 μM dexamethasone. […] IC50 values were determined by iterative non-linear curve fitting of the FP signal data to a 4-parameter logistic equation.

[2] = system: glucocorticoid receptor function; assay: one or more of the above assays (GR binding and glucocorticoid receptor cell assays: aromatase, IL-6, TAT, MMTV-Luc, IL-8, ICAM-Luc); format: cell-based; conditions: assay not specified per compound

SMILES	activity in the GR binding assay [1]	activity as agonists of the glucocorticoid receptor function in one or more of the above assays [2]
COc1ccc(F)cc1C(C)(C)CC(O)(Cc1cc2ccc(C(=O)N3CCOCC3)cc2[nH]1)C(F)(F)F (stereo not shown) [{2-[4-(5-Fluoro-2-methoxyphenyl)-2-hydroxy-4-methyl-2-trifluoromethylpentyl]-1H-indol-6-yl}morpholin-4-ylmethanone]	potent activity	–
COc1ccc(F)cc1C(C)(C)CC(O)(Cc1cc2cnccc2s1)C(F)(F)F (stereo not shown) [1,1,1-Trifluoro-4-(5-fluoro-2-methoxyphenyl)-4-methyl-2-thieno[3,2-c]pyridin-2-ylmethylpentan-2-ol]	potent activity	–
COc1ccc(F)cc1C(C)(C)CC(O)(Cc1cc2ccc(C(N)=O)cc2[nH]1)C(F)(F)F (stereo not shown) [2-[4-(5-Fluoro-2-methoxyphenyl)-2-hydroxy-4-methyl-2-trifluoromethylpentyl]-1H-indole-6-carboxylic acid amide]	potent activity	–
COc1ccc(F)cc1C(C)(C)CC(O)(Cc1cc2nc(C)ncc2[nH]1)C(F)(F)F (stereo not shown) [1,1,1-Trifluoro-4-(5-fluoro-2-methoxyphenyl)-4-methyl-2-(2-methyl-5H-pyrrolo[3 ,2-d]pyrimidin-6-ylmethyl)pentan-2-ol]	potent activity	–
Cc1cccc2c(CC(O)(CC(C)(C)c3cc(F)ccc3O)C(F)(F)F)cc(Cl)nc12 (stereo not shown) [2-[3-(2-Chloro-8-methylquinolin-4-ylmethyl)-4,4,4-trifluoro-3-hydroxy-1,1-dimethylbutyl]-4-fluorophenol]	potent activity	–
COc1ccc(F)cc1C(C)(C)CC(O)(Cc1cc2cc(C(=O)N3CCC(O)CC3)ccc2[nH]1)C(F)(F)F (stereo not shown) [{2-[4-(5-Fluoro-2-methoxyphenyl)-2-hydroxy-4-methyl-2-trifluoromethylpentyl]-1H-indol-5-yl}(4-hydroxypiperidin-1-yl)methanone]	potent activity	–
COc1ccc(F)cc1C(C)(C)CC(O)(Cc1cc2ccc(C(=O)N(C)C)cc2[nH]1)C(F)(F)F (stereo not shown) [2-[4-(5-Fluoro-2-methoxyphenyl)-2-hydroxy-4-methyl-2-trifluoromethylpentyl]-1H-indole-6-carboxylic acid dimethylamide]	potent activity	–
COc1ccc(F)cc1C(C)(C)CC(O)(Cc1cc2cc(C(=O)NCCO)ccc2[nH]1)C(F)(F)F (stereo not shown) [2-[4-(5-Fluoro-2-methoxyphenyl)-2-hydroxy-4-methyl-2-trifluoromethylpentyl]-1H-indole-5-carboxylic acid (2-hydroxyethyl)amide]	potent activity	–
CN(C)c1ccc(C(C)(C)CC(O)(Cc2cc3ccccc3[nH]2)C(F)(F)F)cc1 (stereo not shown) [4-(4-Dimethylaminophenyl)-1,1,1-trifluoro-2-(1H-indol-2-ylmethyl)-4-methylpentan-2-ol]	potent activity	–
CC(C)(CC(O)(Cc1[nH]c2ccccc2c1Br)C(F)(F)F)c1cccc(F)c1 (stereo not shown) [2-(3-Bromo-1H-indol-2-ylmethyl)-1,1,1-trifluoro4-(3-fluorophenyl)-4-methylpentan-2-ol]	potent activity	–
COc1ccc(F)cc1C(C)(C)CC(O)(Cc1cc2cc(C(=O)OCC[Si](C)(C)C)ccc2[nH]1)C(F)(F)F (stereo not shown) [2-[4-(5-Fluoro-2-methoxyphenyl)-2-hydroxy-4-methyl-2-trifluoromethylpentyl]-1H-indole-5-carboxylic acid-2-trimethylsilanylethyl ester]	potent activity	–
CC(C)(CC(O)(Cc1cc2ccc(C(N)=O)cc2[nH]1)C(F)(F)F)c1cc(F)ccc1O (stereo not shown) [2-[4-(5-Fluoro-2-hydroxyphenyl)-2-hydroxy-4-methyl-2-trifluoromethylpentyl]-1H-indole-6-carboxylic acid amide]	potent activity	–
COc1ccc(F)cc1C(C)(C)CC(O)(Cn1ccc2cnccc21)C(F)(F)F (stereo not shown) [1,1,1-Trifluoro-4-(5-fluoro-2-methoxyphenyl)-4-methyl-2-pyrrolo[3,2-c]pyridin-1-ylmethylpentan-2-ol]	potent activity	–
CC(C)(CC(O)(Cc1cc2ccccc2[nH]1)C(F)(F)F)c1ccc(C(F)(F)F)cc1 (stereo not shown) [1,1,1-Trifluoro-2-(1H-indol-2-ylmethyl)-4-methyl-4-(4-trifluoromethylphenyl)pentan-2-ol]	potent activity	–
COc1ccc(F)cc1C(C)(C)CC(O)(Cc1cc2cnccc2o1)C(F)(F)F (stereo not shown) [1,1,1-Trifluoro-4-(5-fluoro-2-methoxyphenyl)-2-furo[3,2-c]pyridin-2-ylmethyl-4-methylpentan-2-ol]	potent activity	–
Cc1ccc(F)cc1C(C)(C)CC(O)(Cc1cc2cc(=O)n(C)cc2[nH]1)C(F)(F)F (stereo not shown) [2-[4-(5-Fluoro-2-methylphenyl)-2-hydroxy-4-methyl-2-trifluoromethylpentyl]-6-methyl-1,6-dihydropyrrolo[2,3-c]pyridin-5-one]	potent activity	–
COc1ccc(F)cc1C(C)(C)CC(O)(Cc1cc2ccccc2s1)C(F)(F)F (stereo not shown) [2-Benzo[b]thiophen-2-ylmethyl-1,1,1-trifluoro-4-(5-fluoro-2-methoxyphenyl)-4-methylpentan-2-ol]	potent activity	–
COc1ccc(F)cc1C(C)(C)CC(O)(Cc1cc2cc(C(=O)N3CCC(=O)CC3)ccc2[nH]1)C(F)(F)F (stereo not shown) [1-{2-[4-(5-Fluoro-2-methoxyphenyl)-2-hydroxy-4-methyl-2-trifluoromethylpentyl]-1H-indole-5-carbonyl}piperidin-4-one]	potent activity	–
COc1ccc(F)cc1C(C)(C)CC(O)(Cn1ccc2ncccc21)C(F)(F)F (stereo not shown) [1,1,1-Trifluoro-4-(5-fluoro-2-methoxyphenyl)-4-methyl-2-pyrrolo[3,2-b]pyridin-1-ylmethylpentan-2-ol]	potent activity	–
COc1ccc(F)cc1C(C)(C)CC(O)(Cc1cc2cc(C(=O)NCC(=O)O)ccc2[nH]1)C(F)(F)F (stereo not shown) [({2-[4-(5-Fluoro-2-methoxyphenyl)-2-hydroxy-4-methyl-2-trifluoromethylpentyl]-1H-indole-5-carbonyl}amino)acetic acid]	potent activity	–
COc1ccc(F)cc1C(C)(C)CC(O)(Cc1cc2cc(C(=O)NCCCC(=O)O)ccc2[nH]1)C(F)(F)F (stereo not shown) [4-({2-[4-(5-Fluoro-2-methoxyphenyl)-2-hydroxy-4-methyl-2-trifluoromethylpentyl]-1H-indole-5-carbonyl}amino)butyric acid]	potent activity	–
COc1ccc(C)cc1C(C)(C)CC(O)(Cc1cc2c(C)cc(C#N)cc2[nH]1)C(F)(F)F (stereo not shown) [2-[2-Hydroxy-4-(2-methoxy-5-methylphenyl)-4-methyl-2-trifluoromethylpentyl]-4-methyl-1H-indole-6-carbonitrile]	potent activity	–
CN(C)C(=O)c1ccc2cc(CC(O)(CC(C)(C)c3cc(F)ccc3O)C(F)(F)F)[nH]c2c1 (stereo not shown) [2-[4-(5-Fluoro-2-hydroxyphenyl)-2-hydroxy-4-methyl-2-trifluoromethylpentyl]-1H-indole-6-carboxylic acid dimethylamide]	potent activity	–
CC(C)(CC(O)(Cc1ccnc2ccccc12)C(F)(F)F)c1ccncc1 (stereo not shown) [1,1,1-Trifluoro-4-methyl-4-pyridin-4-yl-2-quinolin-4-ylmethylpentan-2-ol]	potent activity	–
CN(C)Cc1c(CC(O)(CC(C)(C)c2cc(F)ccc2O)C(F)(F)F)[nH]c2ccncc12 (stereo not shown)	–	potent agonists

Source: patent US8741897B2, “Glucocorticoid mimetics, methods of making them, pharmaceutical compositions and uses thereof” (Boehringer Ingelheim Pharmaceuticals Inc., priority 2003, dated 2014)
